From patent publication US10442830B2, “Synthesis of monoethers of sugar comprising a long alkyl chain and uses thereof as a surfactant” (TEREOS STARCH & SWEETENERS BELGIUM, priority 2014, dated 2019)

Assay: Surface tension of aqueous solutions (Du Noüy-Padday method, platinum rod probe)
Assay type: physicochemical
Conditions: for Minimum hydrotrope concentration (MHC) or critical micelle concentration (CMC) / surface tension of water (γsat): in water at 25° C.; for surface tension of water (γsat): saturation surface tension; for concentration necessary to lower the surface tension / surface tension reached at the stated concentration: water
Method: The term “surfactant” or “surface-active agent” denotes a compound that reduces surface tension when it is dissolved in water or in an aqueous medium, or that reduces the interfacial tension between two liquids, between a liquid and a solid or between a liquid and a gas. As a general rule, the surface-active properties of a compound may be measured by the plate method using a platinum rod as probe (Du Nouy-Padday method, as described in J F Padday, A R Pitt, R M Pashley, J. Chem. Soc. Faraday. Trans 1, 1975, 71, 1919-1931). The Du Nouy-Padday method is used for measuring the equilibrium of surface tension or of dynamic surface tension at the air/liquid interface.
Surface tension was measured at (25.0±0.1)° C. with a Krüss K100MK2 tensiometer using a platinum rod as probe. A total of 1.0 ml of water was added to the measuring vessel. When the surface tension is stable (standard deviation of the last five measurements of 0.2 mN/m), manual dilution is carried out with a concentrated solution of surfactant to its limit of solubility while maintaining constant volume.
In the present study, the general characteristics of the surfactants were evaluated by measuring the reduction in saturated surface tension (γsat) and the critical micelle concentration (CMC) of the mixture (3+4) previously obtained in water at 25° C. The surface-active properties were compared against those of the pure compounds.
The surface tension of aqueous solutions containing increasing concentrations of each of the compounds was measured by the Du Noüy-Padday method using a platinum rod as probe (method described in J. F. Padday, A. R. Pitt, R. M. Pashley, J. Chem. Soc. Faraday. Trans 1, 1975, 71, 1919-1931). The data are presented graphically in FIG. 1, showing analysis of the surface tension as a function of the concentration of the sorbitan ether derivatives ([…] (black diamonds), C12EthSorb (black lozenges), C5/C12EthSorb (black triangles)). The value of the critical micelle concentration (CMC) is shown with a small arrow for C5EthSorb.
The general characteristics of the surfactants were evaluated as in example 4 by measuring the reduction in saturated surface tension (γsat) and the critical micelle concentration (CMC) of the mixture (C5/C12 MeGlu) obtained previously in water at 25° C. The surface-active properties were compared with pure compounds.
The surface tension of aqueous solutions containing increasing concentrations of each of the compounds was measured by the plate method using a platinum rod as probe (Du Nouy-Padday method as described in J F Padday, A R Pitt, R M Pashley, J. Chem. Soc. Faraday. Trans 1, 1975, 71, 1919-1931). The data are shown in FIG. 2, showing analysis of the surface tension from the concentration of the ether derivatives of methyl glucoside (C5EthMeGlu (black star), C12EthMeGlu (black diamond), C5/C12EthMeGlu (black cross)).

[1] = ether derivatives of methyl glucoside

Row | Substance | Minimum hydrotrope concentration (MHC) or critical micelle concentration (CMC) (sorbitan ether derivatives) [mg/L] | surface tension of water (γsat) (sorbitan ether derivatives) [mN/m] | concentration necessary to lower the surface tension (sorbitan ethers, to lower the surface tension by 31 mN/m) [µg/mL] | surface tension reached at the stated concentration (sorbitan ethers) [mN/m] | Minimum hydrotrope concentration (MHC) or critical micelle concentration (CMC) [1] [mg/L] | surface tension of water (γsat) [1] [mN/m] | concentration necessary to lower the surface tension (methyl glucoside ethers) [µg/mL] | surface tension reached at the stated concentration (methyl glucoside ethers) [mN/m]
1 | pentyl sorbitan [Product C5EthSorb] | 1779 | 32 | 1179 | 31 |  |  |  | 
2 | (6+4)-O-dodecyl-α-D-methyl glucopyranoside [Product C12EthMeGlu] |  |  |  |  | 4.5 | 28 |  | 
3 | (6+5+3−)-dodecyl sorbitan [Product C12EthSorb] | 30.2 | 31 |  |  |  |  |  | 
4 | pentyl α-D-methyl glucopyranoside [Product C5EthMeGlu] |  |  |  |  | 8199 | 32 | 8199 | 32
